Reference: patent US20260250318A1, “COMPOSITIONS AND METHODS FOR CROSSING THE BLOOD BRAIN BARRIER” (VOYAGER THERAPEUTICS, INC., priority 2022, published 2026)

Legend:
[1] = test system: brains, heart, liver, muscle, and DRG of the NHPs; assay: Maturation of TTM-001 and TTM-002 capsids, NGS enrichment in NHP tissues; type: in vivo; conditions: relative to AAV9 control
Procedure, shortened: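 Variants carry mutations within and flanking the loop IV peptide insert: positions 450–466 were triplet-randomized, while positions 449–466 received low-frequency point mutations. The combined pool went into two NHPs, and each peptide was scored by NGS enrichment ratio against AAV9.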

[2] = test system: brain; assay: Matured TTM-001 and TTM-002 variants, NGS enrichment in mouse brain; type: in vivo, mice; conditions: NGS fold-enrichment, relative to AAV9 control
[3] = NGS fold-enrichment of RNA, NHP brain
[4] = NGS fold-enrichment, DRG of NHPs
[5] = NGS fold-enrichment, NHP liver DNA
[6] = NGS fold-enrichment, NHP liver RNA
[7] = NGS fold-enrichment, NHP muscle
[8] = NGS fold-enrichment, RNA, brain of NHPs
[9] = NGS fold-enrichment, heart of NHPs
[10] = NGS fold-enrichment, liver DNA of NHPs
[11] = NGS fold-enrichment, liver RNA of NHPs
[12] = NGS fold-enrichment, muscle of NHPs

Row | Sequence | Fold Enrichment relative to AAV9, Brain (NHP) [1, 3] [fold] | Fold Enrichment relative to AAV9, DRG (NHP) [1, 4] [fold] | Fold Enrichment relative to AAV9, DRG (NHP) ([1]; NGS fold-enrichment, NHP DRG) [fold] | Fold Enrichment relative to AAV9, Heart (NHP) ([1]; NGS fold-enrichment, NHP heart) [fold] | Fold Enrichment relative to AAV9, Liver DNA (NHP) [1, 5] [fold] | Fold Enrichment relative to AAV9, Liver RNA (NHP) [1, 6] [fold] | Fold Enrichment relative to AAV9, Muscle (NHP) [1, 7] [fold] | Fold Enrichment relative to AAV9, Brain (NHP) [1, 8] [fold] | Fold Enrichment relative to AAV9, Heart (NHP) [1, 9] [fold] | Fold Enrichment relative to AAV9, Liver DNA (NHP) [1, 10] [fold] | Fold Enrichment relative to AAV9, Liver RNA (NHP) [1, 11] [fold] | Fold Enrichment relative to AAV9, Muscle (NHP) [1, 12] [fold] | Fold Enrichment relative to AAV9, Brain (Mouse) ([2]; brain of mice) [fold] | Fold Enrichment relative to AAV9, Brain (Mouse) ([2]; mouse brain) [fold]
1 | KTEKISGSPHSKAQNQQT | 116.603 | 0.000 | 0.000 | 0.000 | 0.426 | 0.000 | 0.000 | 116.603 | 0.000 | 0.426 | 0.000 | 0.000 | 102.978 | 102.978
2 | KTEKMSGSPHSKAQNQQT | 169.461 | 0.523 | 0.523 | 0.000 | 0.158 | 0.000 | 0.000 | 169.461 | 0.000 | 0.158 | 0.000 | 0.000 | 109.161 | 109.161
3 | KTEKNSGSPHSKAQNQQT | – | 0.000 | – | – | – | – | – | 73.347 | 0.000 | 0.021 | 0.159 | 0.044 | 74.393 | –
4 | KTEKSSGSPHSKAQNQQT | 107.470 | 0.000 | 0.000 | 0.016 | 0.179 | 0.977 | 0.014 | 107.470 | 0.016 | 0.179 | 0.977 | 0.014 | 100.177 | 100.177
5 | KTEKTSGSPHSKAQNQQT | 120.337 | 0.000 | 0.000 | 0.355 | 0.119 | 0.000 | 0.000 | 120.337 | 0.355 | 0.119 | 0.000 | 0.000 | 101.467 | 101.467
6 | KTEKVSGSPHSKAQNQQT | 84.558 | 0.000 | 0.000 | 0.022 | 0.424 | 0.873 | 0.000 | 84.558 | 0.022 | 0.424 | 0.873 | 0.000 | 112.185 | 112.185
